Results published in publication PMC10067442, “In vivo quantitative high-throughput screening for drug discovery and comparative toxicology” (Disease Models & Mechanisms, 2023).
Entries after “also recorded” stand apart in the source; their conditions may differ. Structures can show the parent of a compound that is named as a salt. Where two headings read alike, the source gives them in different places.

Columns and labels:
Type in all cases: in vivo, Caenorhabditis elegans
C. elegans strain PE254 [1] = test: Follow-up 11-point re-test, C. elegans LSC viability; details: 11-point titration, day 7, GFP area and worm number
Method: C. elegans strain PE254 were collected from six NGM plates and washed. […] Assay-ready plates were prepared as above with an 11-point, 1:3 titration of 96 compounds identified as active from the qHTS screen based on curve classification and maximum response. […] Data were normalized as above, and concentration–response curves were fit in Prism with nonlinear regression log(agonist) versus response–variable slope (four parameters) fit.

C. elegans strain PE254 [2] = test: C. elegans LSC qHTS viability assay, Anti-Infectives library primary screen (BG-fed, 384-well); details: for activity on C. elegans viability in primary qHTS (in words): seven-point titration, GFP area; for EC50: Caenorhabditis elegans, Fig. 3D
Method: Levamisole, ivermectin and albendazole were purchased from Sigma-Aldrich. Stock solutions of all compounds were prepared at 10 mM in DMSO, and ivermectin was diluted to a 10 µM working dilution in DMSO. […] Of these, 284 (38%) are approved for clinical use in the United States, 32 (4%) were previously marketed for use in the United States, and 62 (8%) are used clinically outside of the United States. […] DMSO stock solutions of were arrayed in Echo-qualified 384-well cyclic olefin copolymer plates (Labcyte) in qHTS inter-plate dilution with seven concentrations, 1:5 dilution, resulting in a final concentration range of 2.5–20 mM high concentration titrated to 160 nM to 1.28 µM low concentration ([Yasgar et al., 2008]). ‘Assay-ready’ plates were prepared in 384-well uClear microtiter plates (Greiner BioOne), with compounds acoustically dispensed at 250 nl per well with an Echo 555 in the above inter-plate titration array. Two plates with DMSO added across the compound field at the same volume were prepared as screening controls (‘uniformity plates’). DMSO vehicle control was added to every well of column 1, and levamisole cytotoxicity control was added at a high concentration of 10 mM in wells 1–8 and titrated 1:3, starting at a high concentration of 10 mM to 4.57 µM in wells 9–16 of column 2 of every plate. Additionally, ivermectin, levamisol and albendazole were plated as internal controls on one assay plate in 16-point, 1:2 titration down six replicate columns per compound, starting at a high concentration of 10 µM (ivermectin) or 10 mM (levamisole and albendazole). Assay-ready plates were sealed and frozen at −80°C until use.
C. elegans strain PE254 were collected from 12 NGM plates as above, transferred to 250 ml S medium supplemented with OP50 E. coli pellet collected from 2 l overnight culture, and grown for 5 days at 21°C with vigorous shaking in an Incu-Shaker Mini Shaking Incubator (Benchmark Scientific, Inc.). Eggs were axenized as above and hatched overnight in M9 buffer at 21°C and shaken at 65 rpm. Assay ready plates were thawed and allowed to equilibrate to ambient temperature. BGs in S medium (30 µl/well) at an OD600=0.85 were manually added across plates with a Capp pipette. Synchronized L1 worms from above were collected, diluted and plated at ten worms/30 µl/well with a Capp pipette into assay-ready microtiter plates pre-plated with BGs and compounds (240-fold dilution). […] No ethical approval or guidance is needed for working with nematodes.
Data from the Anti-Infectives screen were normalized by plate to corresponding intra-plate controls as previously described ([Inglese et al., 2006]). Assay statistics were calculated using the same respective controls. Total object ‘GFP’ area (µm^2) and number of worms were normalized to the average signal of DMSO-treated wells as zero percent neutral control, and the average signal of 41.7 µM levamisole-treated wells as −100% activity. In-house software was used to fit the resulting inter-plate titration data to the standard Hill equation, and concentration–response curves were classified by activity as previously described ([Southall et al., 2009]). Curve fits assignments of −1.1, −1.2, −2.1, −2.2 and −3 were considered active and visually confirmed.

C. elegans strain PE254 [3] = test: Life-stage distribution analysis by COPAS flow cytometry after 7-day treatment; details: 7-day treatment at ∼EC75-80, mixed population of 2000 worms/well
Method: After 7 days of compound treatment in six-well culture plates seeded with a mixed population of 2000 C. elegans strain PE254, a life-stage distribution analysis was determined by TOF and EC using the COPAS FP BioSorter, followed by bulk collection in a 50 ml conical tube for use in proteomics studies.

[4] = read-out: qHTS potency based on GFP area
[5] = read-out: qHTS potency based on worm number

How did the “activity on C. elegans viability in follow-up (in words)” value (C. elegans strain PE254 [1]) turn out when CC(=O)OC[C@H]1O[C@@H]([S-])[C@H](OC(C)=O)[C@@H](OC(C)=O)[C@@H]1OC(C)=O.CCP(CC)CC.[Au+] [Auranofin, auranofin] was run?
Its value is “best activity; also recorded: potent and/or efficacious toxicity”.

For O=C(NO)c1cccc(C(=O)NCCc2ccccc2)c1 [BRD73954], which “activity on C. elegans viability in primary qHTS (in words)” value (“activity … in primary qHTS (in words)” for short) (C. elegans strain PE254 [2]) is on record?
The value was “inactive”.

With CC(C)C[C@H](NC(=O)[C@H](Cc1ccccc1)NC(=O)c1cnccn1)B(O)O [Bortezomib] as the molecule, how does the EC50 (C. elegans strain PE254 [2]; [4]) read?
Its EC50 is 888 nM.

What about the EC50 (C. elegans strain PE254 [2]; [5]) of the same molecule?
Its EC50 is 592 nM.

And the “effect on life stage viability (in words)” value (C. elegans strain PE254 [3])?
Its value is “potent larval-stage depletion”.

And the “effect on life stage viability (in words)” value (C. elegans strain PE254 [3]; listed as 5)?
Its value is “affecting life-stage progression or number”.

For Cc1noc2c1-c1ccccc1C(c1ccc(Cl)cc1)=N[C@H]2CC(N)=O [CPI-0610], which “activity … in primary qHTS (in words)” value (C. elegans strain PE254 [2]) is on record?
The value was “Active”.

With CCCC[C@@H](C=O)NC(=O)[C@H](CC(C)C)NC(=O)OCc1ccccc1 [Calpeptin] as the molecule, how does the “activity … in primary qHTS (in words)” value (C. elegans strain PE254 [2]) read?
The value was “Inactive”.

Which “activity … in primary qHTS (in words)” value (C. elegans strain PE254 [2]) does the source give for CC(C)C[C@H](NC(=O)[C@H](CCc1ccccc1)NC(=O)CN1CCOCC1)C(=O)N[C@@H](Cc1ccccc1)C(=O)N[C@@H](CC(C)C)C(=O)[C@@]1(C)CO1 [Carfilzomib] here?
The value was “Inactive”.

With CC(C)C[C@H](NC(=O)[C@@H](NC(=O)c1cccc(-c2ccccc2)n1)[C@@H](C)O)B(O)O [Delanzomib] as the molecule, how does the EC50 (C. elegans strain PE254 [2]; [4]) read?
The EC50 was 405 nM.

And the EC50 (C. elegans strain PE254 [2]; [5])?
Its EC50 is 311 nM.

With CC[C@H](C)[C@H](NC(=O)[C@H]([C@@H](C)CC)N(C)C(C)=O)C(=O)N[C@H](C(=O)N[C@@H](CC(C)C)C(=O)[C@@]1(C)CO1)[C@@H](C)O [Epoxomicin] as the molecule, how does the “activity … in primary qHTS (in words)” value (C. elegans strain PE254 [2]) read?
The value was “Inactive”.

For CC(=O)N1c2ccc(-c3ccc(C(=O)O)cc3)cc2[C@H](Nc2ccc(Cl)cc2)C[C@@H]1C [GSK1324726A], which “activity … in primary qHTS (in words)” value (C. elegans strain PE254 [2]) is on record?
The value was “Active”.

For COc1cc2c(cc1-c1c(C)noc1C)ncc1[nH]c(=O)n([C@H](C)c3ccccn3)c12 [I-BET151], which “activity … in primary qHTS (in words)” value (C. elegans strain PE254 [2]) is on record?
Its value is “inactive”.

For CCNC(=O)C[C@@H]1N=C(c2ccc(Cl)cc2)c2cc(OC)ccc2-n2c(C)nnc21 [I-BET762], which “activity … in primary qHTS (in words)” value (C. elegans strain PE254 [2]) is on record?
The value was “Active”.

CC(C)C[C@H](NC(=O)CNC(=O)c1cc(Cl)ccc1Cl)B1OC(=O)C(CC(=O)O)(CC(=O)O)O1 [Ixazomib citrate] was tested. Which EC50 (C. elegans strain PE254 [2]; [4]) did it give?
The EC50 was 411 nM.

What about the EC50 (C. elegans strain PE254 [2]; [5]) of the same molecule?
The EC50 was 382 nM.

Which EC50 (C. elegans strain PE254 [2]; [4]) does the source give for CC(C)C[C@H](NC(=O)CNC(=O)c1cc(Cl)ccc1Cl)B(O)O [Ixazomib] here?
Its EC50 is 1130 nM.

What about the EC50 (C. elegans strain PE254 [2]; [5]) of the same molecule?
Its EC50 is 863 nM.

With Cc1sc2c(c1C)C(c1ccc(Cl)cc1)=N[C@@H](CC(=O)OC(C)(C)C)c1nnc(C)n1-2 [JQ1] as the molecule, how does the “activity … in primary qHTS (in words)” value (C. elegans strain PE254 [2]) read?
Its value is “Active”.

What does the source list for O=C(Oc1ccc([N+](=O)[O-])cc1)N1CCC(C(O)(c2ccc3c(c2)OCO3)c2ccc3c(c2)OCO3)CC1 [JZL-184]?
activity on C. elegans viability in primary qHTS (in words) (C. elegans strain PE254 [2]): low potency and efficacy; activity on C. elegans viability in follow-up (in words) (C. elegans strain PE254 [1]): moderately active
